Assay results taken from patent US12252491B2, “IL-17A inhibitors” (Eli Lilly and Company, priority 2019, dated 2025).

Tests used:
[1] = biological target: binding of IL-17A to IL-17RA (Homo sapiens (Human), UniProt Q16552); experiment: IL-17A:IL-17RA AlphaLISA
Experimental: The ability of compounds to inhibit the binding of IL-17A to IL-17RA may be assessed with an AlphaLISA assay.
To assay the compounds of the present invention, 0.1 μL of a test compound stock is serially diluted in 100% DMSO using an Echo Acoustic Liquid Handler (LabCyte Sunnydale, Calif.) in 384 well proxiplates (Perkin Elmer). A 5 μL addition of IL-17RA-FLAG is added to the plate, followed by the addition of 5 μL Avi-tagged IL-17A-His to provide a final concentration of 2 nM of IL-17RA and IL-17A, respectively. The assay is carried out in 20 mM HEPES, 150 mM NaCl, 0.05% Tween-20, 0.1% Human Serum Albumin, pH 7 and 1% DMSO. The assay mixture is allowed to incubate at room temperature for 2 hours. After the 2 hour incubation, 10 μL of streptavidin donor beads (20 μg/ml final) and anti-FLAG acceptor beads (20 μg/ml final) are added to the plate. The plate is allowed to incubate for one hour at room temp, then is read on the Envision (Perkin Elmer). The relative IC50 values are determined using a four parameter fit as shown in equation 1. In this equation, bottom and top are defined as the plateaus of the curve, and H is the Hill Slope.

human IL-17A = human IL-17A (Homo sapiens (Human), UniProt Q16552)
Experimental: The ability of compounds to neutralize the activity of IL-17A may be assessed with a cell-based human IL-17A neutralization assay conducted essentially as follows. […] After 48 hours, CXCL1/GROα in the culture media is measured using a commercial ELISA kit (#DY275; R&D Systems). Medium alone treatments are included in every experiment to assess the basal levels of CXCL1/GROα. Percent inhibition is calculated using the following equation:

[2] = Mouse oral bioavailability; type: in vivo; details: whole blood (dried blood spot), male mice, IV bolus 1 mg/kg vs oral 3 mg/kg, 8-hour AUC, read-out: % F (mouse)
Experimental: Oral bioavailability (% F) for compounds of the invention may be determined in mice by determination of an 8-hour blood plasma AUC (nM*hr) following intravenous and oral administration performed essentially as follows. Male mice (n=3) are administered compound via intravenous (IV) bolus (1 mg/kg) or orally (3 mg/kg). For intravenous administration, a vehicle of 20% w/v capsitol in NaPO4 buffer (25 mM) adjusted to pH 2 in a volume of 5 mL/kg is used. For oral administration, a vehicle of HEC/P80/AF/PW (probe sonicated to afford a homogeneous suspension) in a volume of 10 mL/kg is used. Blood is sampled by saphenous bleeding using K2 EDTA as anticoagulant. Approximately 20 μL of blood (or enough for 1 spot) is collected via a capillary tube and transferred to a card as a dry blood spot. Cards are allowed to dry for at least 2 hours before shipping for analysis. Blood concentration of compounds for each mouse is measured by liquid chromatography/tandem mass spectrometry at time points of 0.08 (IV only), 0.25, 0.5, 0.75, 2, 4, and 8 hours. Oral bioavailability (% F) is determined via the following equation: [% F=(AUC/Dose)PO/(AUC/Dose)IV].

human IL-17A, sequence (Q16552 20-155): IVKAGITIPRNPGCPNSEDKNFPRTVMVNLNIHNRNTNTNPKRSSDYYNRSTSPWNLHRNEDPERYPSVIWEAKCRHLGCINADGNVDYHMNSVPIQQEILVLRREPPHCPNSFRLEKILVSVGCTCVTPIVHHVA
binding of IL-17A to IL-17RA, sequence (Q16552 other isoform, or with tags, fused parts or gaps): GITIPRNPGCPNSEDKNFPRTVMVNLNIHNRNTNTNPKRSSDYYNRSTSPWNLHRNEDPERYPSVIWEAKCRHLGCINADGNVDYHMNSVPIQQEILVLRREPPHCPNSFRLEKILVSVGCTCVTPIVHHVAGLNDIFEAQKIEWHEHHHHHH

Row | Compound | IC50 [1] [nM] | IC50 (human IL-17A) [nM] | bioavailability [2] [%]
1 | COC[C@H](c1cnn2cc([C@@H](NC(=O)c3nonc3C3CC3)C3CCC(F)(F)CC3)nc2c1)N1C[C@@H](C(F)(F)F)NC1=O [Example 25, 4-Cyclopropyl-N—[(S)-(4,4-difluorocyclohexyl)-[7-[(1S)-2-methoxy-1-[(4S)-2-oxo-4-(trifluoromethyl)imidazolidin-1-yl]ethyl]imidazo[1,2-b]pyridazin-2-yl]methyl]-1,2,5-oxadiazole-3-carboxamide] | < 9.45 | 2.2 ± 1.6 | 37
2 | O=C(N[C@H](c1cn2ncc(CN3C[C@@H](C(F)(F)F)NC3=O)cc2n1)C1CCC(F)(F)CC1)c1conc1C(F)(F)F [Example 11, N—[(S)-(4,4-Difluorocyclohexyl)-[7-[[(4S)-2-oxo-4-(trifluoromethyl)imidazolidin-1-yl]methyl]imidazo[1,2-b]pyridazin-2-yl]methyl]-3-(trifluoromethyl)isoxazole-4-carboxamide] | < 9.45 | 148 | 55
3 | CCc1nocc1C(=O)N[C@H](c1cn2ncc(CN3C[C@@H](C(F)(F)F)NC3=O)cc2n1)C1CCC(F)(F)CC1 [Example 2, N—[(S)-(4,4-Difluorocyclohexyl)-[7-[[(4S)-2-oxo-4-(trifluoromethyl)imidazolidin-1-yl]methyl]imidazo[1,2-b]pyridazin-2-yl]methyl]-3-ethyl-isoxazole-4-carboxamide] | 15.2 ± 2.5 | 53.3 ± 26.4 | 28
4 | O=C(N[C@H](c1cn2ncc(CN3C[C@@H](C(F)(F)F)NC3=O)cc2n1)C1CCC(F)(F)CC1)c1conc1C1CC1 [Example 1, 3-Cyclopropyl-N—[(S)-(4,4-difluorocyclohexyl)-[7-[[(4S)-2-oxo-4-(trifluoromethyl)imidazolidin-1-yl]methyl]imidazo[1,2-b]pyridazin-2-yl]methyl]isoxazole-4-carboxamide] | 15.7 ± 7 | 51.6 ± 23.5 | 34
